According to PubChem BioAssay AID1259407 (Chemical Carcinogenesis Research Information System (CCRIS), 2018):
Active and inactive are the calls of the source. How the calls were made is not given here.

System: CCRIS mutagenicity, Ames/micronucleus/aberration tests
Assay: CCRIS mutagenicity studies
[1] = Test System: AMES SALMONELLA TYPHIMURIUM, Strain/Indicator: TA98, Metabolic Activation: NONE, Method: PREINCUBATION
[2] = Test System: AMES SALMONELLA TYPHIMURIUM, Strain/Indicator: TA100, Metabolic Activation: NONE, Method: PREINCUBATION
[3] = Test System: AMES SALMONELLA TYPHIMURIUM, Strain/Indicator: TA1535, Metabolic Activation: NONE, Method: PREINCUBATION

Which results are given for `C=C(CN(C)C)C(=O)c1ccccc1`?
mutagenic call (Test System: AMES SALMONELLA TYPHIMURIUM, Strain/Indicator: TA97A, Metabolic Activation: NONE, Method: SPOT TEST): inactive; negative; mutagenic call (Test System: AMES SALMONELLA TYPHIMURIUM, Strain/Indicator: TA97A, Metabolic Activation: RAT LIVER S-9, Method: SPOT TEST): inactive; negative; mutagenic call (Test System: AMES SALMONELLA TYPHIMURIUM, Strain/Indicator: TA98, Metabolic Activation: NONE, Method: SPOT TEST): inactive; negative; mutagenic call (Test System: AMES SALMONELLA TYPHIMURIUM, Strain/Indicator: TA98, Metabolic Activation: RAT LIVER S-9, Method: SPOT TEST): inactive; negative; mutagenic call (Test System: AMES SALMONELLA TYPHIMURIUM, Strain/Indicator: TA100, Metabolic Activation: NONE, Method: SPOT TEST): inactive; negative; mutagenic call (Test System: AMES SALMONELLA TYPHIMURIUM, Strain/Indicator: TA100, Metabolic Activation: RAT LIVER S-9, Method: SPOT TEST): active; positive; mutagenic call (Test System: AMES SALMONELLA TYPHIMURIUM, Strain/Indicator: TA102, Metabolic Activation: NONE, Method: SPOT TEST): inactive; negative; mutagenic call (Test System: AMES SALMONELLA TYPHIMURIUM, Strain/Indicator: TA102, Metabolic Activation: RAT LIVER S-9, Method: SPOT TEST): inactive; negative; mutagenic call (Test System: AMES SALMONELLA TYPHIMURIUM, Strain/Indicator: TA104, Metabolic Activation: NONE, Method: SPOT TEST): inactive; negative; mutagenic call (Test System: AMES SALMONELLA TYPHIMURIUM, Strain/Indicator: TA104, Metabolic Activation: RAT LIVER S-9, Method: SPOT TEST): inactive; negative; mutagenic call (Test System: AMES SALMONELLA TYPHIMURIUM, Strain/Indicator: TA1535, Metabolic Activation: NONE, Method: SPOT TEST): inactive; negative; mutagenic call (Test System: AMES SALMONELLA TYPHIMURIUM, Strain/Indicator: TA1538, Metabolic Activation: NONE, Method: SPOT TEST): inactive; negative

With `CNC(=O)c1cccc(NCC(=O)NCCc2ccc(OC)c(OC)c2)c1` as the compound, how does the mutagenic call [1] read?
The mutagenic call was “inactive; negative”.

What about the mutagenic call (Test System: AMES SALMONELLA TYPHIMURIUM, Strain/Indicator: TA98, Metabolic Activation: S-9, Method: PREINCUBATION) of the same compound?
Its mutagenic call is “inactive; negative”.

What about the mutagenic call [2] of the same compound?
Its mutagenic call is “inactive; negative”.

What about the mutagenic call (Test System: AMES SALMONELLA TYPHIMURIUM, Strain/Indicator: TA100, Metabolic Activation: S-9, Method: PREINCUBATION) of the same compound?
Its mutagenic call is “inactive; negative”.

What about the mutagenic call [3] of the same compound?
The mutagenic call was “inactive; negative”.

What about the mutagenic call (Test System: AMES SALMONELLA TYPHIMURIUM, Strain/Indicator: TA1535, Metabolic Activation: S-9, Method: PREINCUBATION) of the same compound?
Its mutagenic call is “inactive; negative”.

And the mutagenic call (Test System: AMES SALMONELLA TYPHIMURIUM, Strain/Indicator: TA1537, Metabolic Activation: NONE, Method: PREINCUBATION)?
Its mutagenic call is “inactive; negative”.

And the mutagenic call (Test System: AMES SALMONELLA TYPHIMURIUM, Strain/Indicator: TA1537, Metabolic Activation: S-9, Method: PREINCUBATION)?
The mutagenic call was “inactive; negative”.

And the mutagenic call (Test System: E. COLI, Strain/Indicator: WP2 UVRA, Metabolic Activation: NONE, Method: PREINCUBATION)?
The mutagenic call was “inactive; negative”.

And the mutagenic call (Test System: E. COLI, Strain/Indicator: WP2 UVRA, Metabolic Activation: S-9, Method: PREINCUBATION)?
The mutagenic call was “inactive; negative”.

`Cl[C@@H]1C2(Cl)C3C4[C@@H]5O[C@@H]5[C@H]5C3[C@@](Cl)(C2(Cl)Cl)[C@]1(Cl)[C@@H]45` (stereo not given in full) was tested. Which mutagenic call (Test System: AMES SALMONELLA TYPHIMURIUM, Strain/Indicator: TA97, Metabolic Activation: HAMSTER, LIVER, S-9, AROCLOR 1254 (10%), Method: PREINCUBATION) did it give?
The mutagenic call was “inactive; negative”.

What about the mutagenic call (Test System: AMES SALMONELLA TYPHIMURIUM, Strain/Indicator: TA97, Metabolic Activation: HAMSTER, LIVER, S-9, AROCLOR 1254 (30%), Method: PREINCUBATION) of the same compound?
The mutagenic call was “active; positive”.

What about the mutagenic call (Test System: AMES SALMONELLA TYPHIMURIUM, Strain/Indicator: TA97, Metabolic Activation: NONE, Method: PREINCUBATION) of the same compound?
The mutagenic call was “inactive; negative”.

What about the mutagenic call (Test System: AMES SALMONELLA TYPHIMURIUM, Strain/Indicator: TA97, Metabolic Activation: RAT, LIVER, S-9, AROCLOR 1254 (10 OR 30%), Method: PREINCUBATION) of the same compound?
The mutagenic call was “inactive; negative”.

And the mutagenic call (Test System: AMES SALMONELLA TYPHIMURIUM, Strain/Indicator: TA98, Metabolic Activation: HAMSTER, LIVER, S-9, AROCLOR 1254 (10 OR 30%), Method: PREINCUBATION)?
Its mutagenic call is “inactive; negative”.

What about the mutagenic call [1] of the same compound?
The mutagenic call was “inactive; negative”.

And the mutagenic call (Test System: AMES SALMONELLA TYPHIMURIUM, Strain/Indicator: TA98, Metabolic Activation: RAT, LIVER, S-9, AROCLOR 1254 (10 OR 30%), Method: PREINCUBATION)?
The mutagenic call was “inactive; negative”.

What about the mutagenic call (Test System: AMES SALMONELLA TYPHIMURIUM, Strain/Indicator: TA100, Metabolic Activation: HAMSTER, LIVER, S-9, AROCLOR 1254 (10 OR 30%), Method: PREINCUBATION) of the same compound?
Its mutagenic call is “inactive; negative”.

And the mutagenic call [2]?
Its mutagenic call is “inactive; negative”.

And the mutagenic call (Test System: AMES SALMONELLA TYPHIMURIUM, Strain/Indicator: TA100, Metabolic Activation: RAT, LIVER, S-9, AROCLOR 1254 (10 OR 30%), Method: PREINCUBATION)?
Its mutagenic call is “inactive; negative”.

What about the mutagenic call (Test System: AMES SALMONELLA TYPHIMURIUM, Strain/Indicator: TA1535, Metabolic Activation: HAMSTER, LIVER, S-9, AROCLOR 1254 (10 OR 30%), Method: PREINCUBATION) of the same compound?
The mutagenic call was “inactive; negative”.

What about the mutagenic call [3] of the same compound?
Its mutagenic call is “inactive; negative”.

What about the mutagenic call (Test System: AMES SALMONELLA TYPHIMURIUM, Strain/Indicator: TA1535, Metabolic Activation: RAT, LIVER, S-9, AROCLOR 1254 (10 OR 30%), Method: PREINCUBATION) of the same compound?
Its mutagenic call is “inactive; negative”.
